# Experimental data published in patent publication US20070299092A1 (Wyeth, priority 2004, published 2007).
# Values joined by “and” are separate entries in the source; they are usually repeats but may differ in a detail not shown here. Identical values can stand only once. Like-named read-outs stand apart in the source and are kept apart here.
# Assays:
# KDR [1] = target: T1, KDR (Homo sapiens, UniProt P35968); test: cell-based; settings: for inhibition at 1 µM: read-out: % Inhibition of KDR kinase autophosphorylation in KDR15 cells, compound conc. 1000 nM; for IC50: IC50 (nM), inhibition of KDR kinase autophosphorylation in KDR15 cells, KDR15 cells, VEGF 50 ng/ml, phospho-KDR-Y996 immunoblot
# KDR [2] = target: T1, KDR; settings: compound conc. 1000 nM
# [3] = target: T2, human KDR (VEGF-receptor-2) (Homo sapiens, UniProt P35968); test: KDR kinase enzyme assay (DELFIA, KDR-IC-Flag, poly(Glu4-Tyr) peptide); assay type: biochemical; settings: for inhibition at 0.1 µM / inhibition at 1 µM: read-out: % Inhibition
# T2 construct: beginning at Met-806; (5′-ATG GAT CCA GAT GM CTC CCA TTG) and ending at Val-1356; made in house
# [4] = target: T2, human KDR (VEGF-receptor-2); test: KDR kinase enzyme assay wash-out experiments (irreversible inhibition); assay type: biochemical
# Procedure: To determine if compounds bound irreversibly to enzyme, plates were washed after the enzyme plus compound pre-incubation step and prior to the addition of ATP. Parallel plates were tested wherein one plate was processed exactly as above while a second plate was washed three times in 100 μl of 4 mM HEPES, pH 7.4, to remove unbound compound. 1× Kinase buffer (30 μl of 1 mM MnCl2, 4 mM HEPES, pH 7.4, 20 μM Na3VO4) and 20 μl of ATP/MgCl2 were added to the wash-out plate. Detection of phosphotyrosinylated peptide for both plates was performed as described above.
# For each inhibitor shown in Table 2, two IC50 determinations are shown, one under normal conditions and the other where an intermediate wash-out step is carried out. […] If there was a large increase in the IC50 value in the wash-out experiment compared to the experiment where there was no wash-out, then it was determined that the compound was behaving as a conventional reversible binding inhibitor.
# [5] = tested on: Human umbilical vein endothelial cells (HUVEC); test: HUVEC proliferation assay, VEGF-dependent growth ([3H]-thymidine incorporation); assay type: cell-based; settings: for inhibition at 0.1 µM / inhibition at 1 µM / inhibition at 10 µM: Homo sapiens, HUVEC
# How it was run: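 HUVEC seeded 4000 cells/well, attached overnight, then given compound in serum/VEGF-free EBM plus 50 ng/ml VEGF (final); parallel plates used EGM2 with 2% serum lacking VEGF. Incubation 4-5 days at 37° C. DNA synthesis measured by 5 h [3H]-thymidine (1 μCi/well) incorporation, scintillation-counted.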
# [6] = Concentration 100 nM, ATP conc. 10 μM
# [7] = Concentration 1000 nM, ATP conc. 10 μM
# [8] = Concentration 1000 nM, ATP conc. 1000 μM
# T2 sequence (P35968 806-1356): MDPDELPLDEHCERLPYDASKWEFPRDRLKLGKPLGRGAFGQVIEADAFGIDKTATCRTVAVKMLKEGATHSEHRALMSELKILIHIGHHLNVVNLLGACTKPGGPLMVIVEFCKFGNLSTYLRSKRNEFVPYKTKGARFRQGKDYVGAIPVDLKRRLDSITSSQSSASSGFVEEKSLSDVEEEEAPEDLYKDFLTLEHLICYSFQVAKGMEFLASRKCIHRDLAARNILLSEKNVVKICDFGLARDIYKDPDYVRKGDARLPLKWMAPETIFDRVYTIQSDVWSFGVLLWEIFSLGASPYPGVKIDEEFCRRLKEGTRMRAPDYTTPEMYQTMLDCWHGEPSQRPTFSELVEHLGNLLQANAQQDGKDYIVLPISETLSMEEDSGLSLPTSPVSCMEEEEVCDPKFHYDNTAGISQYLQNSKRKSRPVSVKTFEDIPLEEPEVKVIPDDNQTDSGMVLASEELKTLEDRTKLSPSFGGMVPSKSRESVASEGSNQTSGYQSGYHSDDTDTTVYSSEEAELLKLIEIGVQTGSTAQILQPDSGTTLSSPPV
# T1 sequence (P35968 20-1356): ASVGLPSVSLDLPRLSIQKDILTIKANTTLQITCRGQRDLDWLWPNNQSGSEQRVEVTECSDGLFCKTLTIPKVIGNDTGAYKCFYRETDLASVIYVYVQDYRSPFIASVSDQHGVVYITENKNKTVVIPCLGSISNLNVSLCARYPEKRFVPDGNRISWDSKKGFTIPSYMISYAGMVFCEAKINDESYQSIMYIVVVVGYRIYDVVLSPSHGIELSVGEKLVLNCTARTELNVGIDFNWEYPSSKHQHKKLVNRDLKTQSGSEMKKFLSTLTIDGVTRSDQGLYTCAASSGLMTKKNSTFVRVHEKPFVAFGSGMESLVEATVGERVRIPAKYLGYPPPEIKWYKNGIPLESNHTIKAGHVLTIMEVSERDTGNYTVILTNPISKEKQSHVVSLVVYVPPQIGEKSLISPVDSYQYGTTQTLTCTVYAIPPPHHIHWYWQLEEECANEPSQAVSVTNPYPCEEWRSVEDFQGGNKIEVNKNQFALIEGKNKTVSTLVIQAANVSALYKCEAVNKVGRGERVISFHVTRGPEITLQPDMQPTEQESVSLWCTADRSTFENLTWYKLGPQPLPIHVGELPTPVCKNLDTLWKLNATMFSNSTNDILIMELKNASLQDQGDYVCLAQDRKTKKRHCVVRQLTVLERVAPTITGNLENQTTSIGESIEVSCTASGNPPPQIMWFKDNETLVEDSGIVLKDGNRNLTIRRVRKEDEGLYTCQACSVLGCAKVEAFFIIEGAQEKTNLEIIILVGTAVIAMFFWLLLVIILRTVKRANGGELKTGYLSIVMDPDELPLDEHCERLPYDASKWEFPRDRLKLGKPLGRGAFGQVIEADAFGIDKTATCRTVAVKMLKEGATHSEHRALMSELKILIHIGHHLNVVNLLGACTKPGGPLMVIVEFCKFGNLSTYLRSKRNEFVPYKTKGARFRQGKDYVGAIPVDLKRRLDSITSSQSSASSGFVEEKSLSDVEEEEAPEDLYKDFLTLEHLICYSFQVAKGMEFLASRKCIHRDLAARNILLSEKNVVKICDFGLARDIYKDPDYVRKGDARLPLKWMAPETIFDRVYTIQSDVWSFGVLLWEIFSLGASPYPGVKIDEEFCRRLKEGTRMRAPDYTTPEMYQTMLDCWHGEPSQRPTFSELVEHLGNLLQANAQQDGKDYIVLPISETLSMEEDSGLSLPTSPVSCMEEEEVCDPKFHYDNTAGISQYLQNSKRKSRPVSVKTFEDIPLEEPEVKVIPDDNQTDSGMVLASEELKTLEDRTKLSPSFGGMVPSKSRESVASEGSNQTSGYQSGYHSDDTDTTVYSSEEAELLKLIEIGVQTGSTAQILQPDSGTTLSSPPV
Structure (SMILES),inhibition at 1 µM (KDR [1]),% Inhibition of KDR kinase autophosphorylation in KDR15 cells (KDR [2]),IC50 ([3]; ATP conc. 10 μM),"inhibition at 0.1 µM [3, 6]","inhibition at 1 µM [3, 7]","inhibition at 1 µM [3, 8]",melting point,IC50 ([4]; no wash),IC50 ([4]; wash out),also measured
"COc1cc2ncnc(NC3=CC(=O)C(Cl)=CC3=O)c2cc1OC [Example 2, 2-chloro-5-[(6,7-dimethoxy-4-quinazolinyl)amino]benzo-1,4-quinone]",18%,12%,5.1 nM,83%,96%,98%,–,–,–,–
"COc1cc2ncnc(NC3=CC(=O)C(C(C)C)=CC3=O)c2cc1OC [Example 9, 2-[(6,7-dimethoxy-4-quinazolinyl)amino]-5-isopropylbenzo-1,4-quinone]",–,55% and 94%,–,24%,58%,33%,–,–,–,–
"COCCOc1cc2ncnc(NC3=CC(=O)C(Oc4ccc(S(N)(=O)=O)cc4)=CC3=O)c2cc1OC [Example 38, 4-[(4-{[6-methoxy-7-(2-methoxyethoxy)quinazolin-4-yl]amino}-3,6-dioxocyclohexa-1,4-dien-1-yl)oxy] benzenesulfonamide]",–,97%,–,–,–,–,–,–,–,"% Inhibition [3, 6]: 93%; % Inhibition [3, 7]: 95%"
"COCCOc1cc2ncnc(NC3=CC(=O)C(N(C)c4ccc(OC)c(OC)c4)=CC3=O)c2cc1OC [Example 73, 2-[(3,4-dimethoxyphenyl)(methyl)amino]-5-{[6-methoxy-7-(2-methoxyethoxy)quinazolin-4-yl]amino}benzo-1,4-quinone]",–,90% and 143% and 113%,1840 nM and > 1000 nM,–,30%,-2%,–,–,–,"IC50 (KDR [1]): < 15.6 nM; inhibition at 10 µM ([3]; Concentration not given, ATP conc. 10 μM): 13%"
"COc1cc2ncnc(NC3=CC(=O)C(N4CCOCC4)=CC3=O)c2cc1OC [Example 84, 2-[(6,7-dimethoxyquinazolin-4-yl)amino]-5-morpholin-4-ylbenzo-1,4-quinone]",4%,–,–,–,88%,82%,249 to 250 °C,–,–,–
"COc1cc2ncnc(NC3=CC(=O)C(Nc4ccccc4)=CC3=O)c2cc1OC [Example 86, 2-anilino-5-[(6,7-dimethoxyquinazolin-4-yl)amino]benzo-1,4-quinone]",–,–,40.7 nM,58%,93%,96%,258 to 261 °C,40.7 nM,57.1 nM,–
"COc1cc2ncnc(NC3=CC(=O)C(N(C)C)=CC3=O)c2cc1OC [Example 88, 2-[(6,7-dimethoxyquinazolin-4-yl)amino]-5-(dimethylamino)benzo-1,4-quinone]",32%,–,–,28%,63%,48%,245 to 250 °C,–,–,–
"CNC1=CC(=O)C(Nc2ncnc3cc(OC)c(OC)cc23)=CC1=O [Example 89, 2-[(6,7-dimethoxyquinazolin-4-yl)amino]-5-(methylamino)benzo-1,4-quinone]",–,–,–,11%,18%,-12%,283 to 285 °C,–,–,–
"COCCOc1cc2ncnc(NC3=CC(=O)C(Oc4ccccc4C)=CC3=O)c2cc1OC [Example 90, 2-{[6-methoxy-7-(2-methoxyethoxy)quinazolin-4-yl]amino}-5-(2-methylphenoxy)benzo-1,4-quinone]",–,–,30 nM and 7.5 nM and 8.8 nM,–,94%,96%,134 to 137 °C,8.8 nM,18.5 nM,"IC50 (KDR [1]): 236 nM and 147 nM; inhibition at 0.2 µM (KDR [1]; read-out: % Inhibition of KDR kinase autophosphorylation in KDR15 cells, compound conc. 200 nM): 29%; inhibition at 0.1 µM ([5]; conc. 100 nM): 22%; inhibition at 1 µM ([5]; conc. 1000 nM): 15%; inhibition at 10 µM ([5]; conc. 10000 nM): 95%; % Inhibition [3, 8]: 97%"
"COCCOc1cc2ncnc(NC3=CC(=O)C(Oc4cccnc4)=CC3=O)c2cc1OC [Example 91, 2-{[6-methoxy-7-(2-methoxyethoxy)quinazolin-4-yl]amino}-5-(pyridin-3-yloxy)benzo-1,4-quinone]",55%,–,18.9 nM,76%,96%,97%,189 to 190 °C,18.9 nM,18.9 nM,inhibition at 0.1 µM ([5]; conc. 100 nM): 0%; inhibition at 1 µM ([5]; conc. 1000 nM): 15%; inhibition at 10 µM ([5]; conc. 10000 nM): 93%
"COCCOc1cc2ncnc(NC3=CC(=O)C(Oc4ccc(C)cc4)=CC3=O)c2cc1OC [Example 92, 2-{[6-methoxy-7-(2-methoxyethoxy)quinazolin-4-yl]amino}-5-(4-methylphenoxy)benzo-1,4-quinone]",–,–,–,92%,93%,97%,171 to 172 °C,–,–,–
"COc1cc2ncnc(NC3=CC(=O)C(Oc4ccc(Cl)cc4)=CC3=O)c2cc1OC [Example 94, 2-(4-chlorophenoxy)-5-[(6,7-dimethoxyquinazolin-4-yl)amino]benzo-1,4-quinone]",–,40% and 54% and 64%,4 nM,93%,94%,96%,–,–,–,IC50 (KDR [1]): 386 nM; inhibition at 0.1 µM ([5]; conc. 100 nM): 28%; inhibition at 1 µM ([5]; conc. 1000 nM): 60%; inhibition at 10 µM ([5]; conc. 10000 nM): 94%; % Inhibition of VEGF-dependent growth of HUVEC ([5]; conc. 100 nM): 20%; % Inhibition of VEGF-dependent growth of HUVEC ([5]; conc. 1000 nM): 52%; % Inhibition of VEGF-dependent growth of HUVEC ([5]; conc. 10000 nM): 78%
"COc1cc2ncnc(NC3=CC(=O)C(Oc4ccccc4)=CC3=O)c2cc1OC [Example 95, 2-[(6,7-dimethoxyquinazolin-4-yl)amino]-5-phenoxybenzo-1,4-quinone]",–,–,3.7 nM,85%,96%,98%,228 to 234 °C,4.2 nM,6.5 nM,–
"COCCOc1cc2ncnc(NC3=CC(=O)C(N4CCCCC4)=CC3=O)c2cc1OC [Example 101, 2-{[6-methoxy-7-(2-methoxyethoxy)quinazolin-4-yl]amino}-5-piperidin-1-yl-benzo-1,4-quinone]",–,–,–,–,–,–,197 to 200 °C,–,–,inhibition at 0.1 µM ([5]; conc. 100 nM): 12%; inhibition at 1 µM ([5]; conc. 1000 nM): 36%; inhibition at 10 µM ([5]; conc. 10000 nM): 94%
"COCCOc1cc2ncnc(NC3=CC(=O)C4(C)OC4C3=O)c2cc1OC (stereo not shown) [Example 106, 4-{[6-methoxy-7-(2-methoxyethoxy)-4-quinazolinyl]amino}-1-methyl-7-oxabicyclo[4.1.0]hept-3-ene-2,5-dione]",–,78% and 100% and 59%,339 nM,–,69%,70%,–,–,–,–
"COCCOc1cc2ncnc(NC3=CC(=O)C4(Cc5ccccc5)OC4C3=O)c2cc1OC (stereo not shown) [Example 108, 1-benzyl-4-{[6-methoxy-7-(2-methoxyethoxy)quinazolin-4-yl]amino}-7-oxabicyclo[4.1.0]hept-3-ene-2,5-dione]",68%,–,–,–,–,–,104 to 108 °C,59.8 nM,82.6 nM,–
